Values of other authors, collected in patent US20200316037A1, “COMPOSITIONS AND METHODS FOR TREATING NEOPLASIA” (THE ANGIOGENESIS FOUNDATION, priority 2017, published 2020).
Read-outs that look alike come from different tables or passages of the source.

Tests used:
[1] = for Undesirable Local Reactions (combined stinging, burning, itching, or irritation/dermatitis/rash): monotherapy at normal concentration and standard dose frequency; for Undesirable Local Reactions (combined itching, burning, bleeding, stinging, pain/soreness, tenderness, irritation): monotherapy
[2] = system: superficial Basal Cell Carcinoma (sBCC); conditions: two double-blind vehicle-controlled studies; 5x/week x 6 weeks
BCC = conditions: imiquimod open-label clinical study N=162

C=C1/C(=C\C=C2/CCC[C@]3(C)[C@@H]([C@H](C)/C=C/[C@@H](O)C4CC4)CC[C@@H]23)C[C@@H](O)C[C@@H]1O [Calcipotriene 0.005%, Calcipotriene]
Undesirable Local Reactions (combined stinging, burning, itching, or irritation/dermatitis/rash) [1]: 13-45%

CCCCC(=O)O[C@]1(C(=O)CO)CC[C@H]2[C@@H]3CCC4=CC(=O)CC[C@]4(C)[C@H]3[C@@H](O)C[C@@]21C [Hydrocortisone valerate 0.2%, Hydrocortisone valerate]
Undesirable Local Reactions (combined stinging, burning, itching, or irritation/dermatitis/rash) [1]: 7%

CC(C)Cn1cnc2c(N)nc3ccccc3c21 [Imiquimod 5%, Imiquimod]
sBCC clearance [2]: 75%
Recurrence Rate of BCC (BCC; Month 0): 10%
Recurrence Rate of BCC (BCC; Month 3): 13%
Recurrence Rate of BCC (BCC; Month 6): 15%
Recurrence Rate of BCC (BCC; Month 12): 16%
Recurrence Rate of BCC (BCC; Month 24): 21%
Recurrence Rate of BCC (BCC; Post-treatment): 0%
Undesirable Local Reactions (combined itching, burning, bleeding, stinging, pain/soreness, tenderness, irritation) ([1]; 2x/week study): 39%
Undesirable Local Reactions (combined itching, burning, bleeding, stinging, pain/soreness, tenderness, irritation) ([1]; 3x/week study): 63%
Undesirable Local Reactions (combined itching, burning, bleeding, stinging, pain/soreness, tenderness, irritation) ([1]; 5x/week study): 28%
Incidence of inflammation ([1]; monotherapy per package label, imiquimod clinical studies): ≤ 97%

CC1=C(/C=C/C(C)=C/C=C/C(C)=C/C(=O)O)C(C)(C)CCC1 [Tretinoin 0.1%, Tretinoin]
Undesirable Local Reactions (combined stinging, burning, itching, or irritation/dermatitis/rash) [1]: 15%
